In patent US20150291658A1, “NOVEL CHONDRAMIDE DERIVATIVES” (HELMOLTZ-ZENTRUM FÜR INFEKTIONSFORSCHUNG, priority 2012, published 2015):
Read-outs that look alike come from different tables or passages of the source.

Experiments:
[1] = test system: human U-2 OS osteosarcoma cell line; assay: Growth inhibition experiments (MTT, 5 d), U-2 OS; type: cell-based
Description: (§1) Cells were seeded at 6×10^3 cells per well of 96-well plates (Corning CellBind®) in 180 μl complete medium and directly treated with chondramides dissolved in methanol in a serial dilution. Each compound was tested in duplicate for 5 d, as well as the internal methanol control. After 5 d incubation, 20 μl of 5 mg/ml MTT (Mosmann, T. (1983). Rapid Colorimetric Assay for Cellular Growth and Survival: Application to Proliferation and Cytotoxicity Assays. J. Immunol. Meth. 65, 55-63) in PBS was added per well and it was further incubated for 2 h at 37° C. The medium was then discarded and cells were washed with 100 μl PBS before adding 100 μl 2-propanol/10 N HCl (250:1) in order to dissolve formazan granules. The absorbance at 570 nm was measured using a microplate reader (EL808, Bio-Tek Instruments Inc.), and cell viability was expressed as percentage relative to the respective methanol control. GI50 values were obtained by sigmoidal curve fitting. Testing of fractions was performed likewise using 1.2×10^4 cells per well. Samples were dissolved in cell culture medium and cells were treated for 2 d before adding MTT. Viability was expressed relative to the untreated control.

[2] = test system: HCT-116 colon carcinoma cell line; assay: Growth inhibition experiments (MTT, 5 d), HCT-116; type: cell-based, human
Description: as §1

[3] = test system: KB-3.1: human cervical carcinoma; assay: Growth inhibition experiments (GI50), KB-3.1; type: cell-based; settings: for GI50 KB-3.1: group A derivatives, small panel of cancer cell lines, KB-3.1 human cervical carcinoma; for GI50 values KB-3.1: Table 1
[4] = test system: RAW246.7: murine leukemic monocyte macrophages; assay: Growth inhibition experiments (GI50), RAW246.7; type: cell-based; settings: group A derivatives, small panel of cancer cell lines
[5] = test system: HUVEC, human umbilical vein endothelial cells (primary cells); assay: Growth inhibition experiments (MTT, 5 d), HUVEC; type: cell-based; settings: Table 1
Excerpt: (§2) With primary cells (HUVEC, human umbilical vein endothelial cells) and the fibroblast cell line MRC5 this is not the case. Whereas chondramides A˜C are comparably active on both, cancer and non-cancerous cells, brominated chondramide C3 analogs are on average by factor 2-4 less toxic for non-cancerous cells. Accordingly they show a higher selectivity.
Cell lines were obtained from the American Type Culture Collection (ATCC) and the German Collection of Microorganisms and Cell Cultures (Deutsche Sammlung für Mikroorganismen and Zellkulturen, DSMZ), and HUVEC (single donor) were purchased from PromoCell. Cells were cultured under the conditions recommended by the respective depositor in a standard humidified incubator at 37° C. with 5% CO2.
as §1

[6] = test system: fibroblast cell line MRC5; assay: Growth inhibition experiments (MTT, 5 d), MRC5; type: cell-based, human; settings: Table 1
Description: as §2, §1

[7] = test system: multidrug resistant (MDR) KB-V.1 cell line; assay: Growth inhibition experiments (MTT, 5 d), KB-V.1; type: cell-based; settings: Table 1
Description: Cancer Inst. 90, 1559-1563). […] The same applies for most novel derivatives, solely a hydroxyl group at C2′ of the polyketide segment instead of methoxy or simply hydrogen leads to an approximately 10-fold reduced potency. GI50 values of glycosylated derivatives were not determinable precisely in the assay's concentration range.
as §1

L-929 = assay: Growth inhibition experiments (GI50), L-929; type: cell-based; settings: Table 1
[8] = group A derivatives, small panel of cancer cell lines, U-2 OS human osteosarcoma, read-out: GI50 U-2 OS
[9] = group A derivatives, small panel of cancer cell lines, HCT-116 human colon carcinoma, read-out: GI50 HCT-116
[10] = Table 1, U-2 OS, read-out: GI50 values U-2 OS
[11] = Table 1, HCT-116, read-out: GI50 values HCT-116

SMILES: CCC1C/C=C(\C)CCC(=O)NC(C)C(=O)N(C)C(Cc2c(Cl)[nH]c3ccccc23)C(=O)NC(c2ccc(O)c(Cl)c2)CC(=O)O1 (stereo not shown) [CA8]
- GI50 [1, 8]: 0.6 nM
- GI50 [2, 9]: 0.2 nM
- GI50 KB-3.1 [3]: 1.1 nM
- GI50 [4]: 0.8 nM

SMILES: CCC1C/C=C(\C)CCC(=O)NC(C)C(=O)N(C)C(C(C)C)C(=O)NC(c2ccc(O)c(Cl)c2)CC(=O)O1 (stereo not shown) [CA4]
- GI50 [1, 8]: > 180 nM
- GI50 [2, 9]: 25.5 nM
- GI50 KB-3.1 [3]: 58.2 nM
- GI50 [4]: 29.8 nM

SMILES: CCC1C/C=C(\C)CC(C)C(=O)NC(C)C(=O)N(C)C(Cc2c(Cl)[nH]c3ccccc23)C(=O)NC(c2ccc(O)c(Cl)c2)CC(=O)O1 (single isomer, unassigned) [CA7-Fr2]
- GI50 [1, 8]: 1.3 nM
- GI50 [2, 9]: 0.8 nM
- GI50 KB-3.1 [3]: 1.9 nM
- GI50 [4]: 1.8 nM

SMILES: CC1=CC(C)C(C)OC(=O)CC(c2ccc(O)c(Br)c2)NC(=O)C(Cc2c[nH]c3ccccc23)N(C)C(=O)C(C)NC(=O)C(C)C1 (stereo not shown) [Bromo-Chondramide C3]
- GI50 [1, 10]: 4.8 ± 1.7 nM
- GI50 [2, 11]: 17.7 ± 1.3 nM
- GI50 [5]: 44.4 ± 7 nM
- GI50 [6]: 57.7 ± 3.5 nM
- GI50 values KB-V.1 [7]: 23.8 ± 2.1 nM
- GI50 values KB-3.1 [3]: 46.8 ± 6.5 nM
- GI50 (L-929): 14 ± 1.4 nM

SMILES: C/C1=C\CCOC(=O)CC(c2ccc(O)c(Cl)c2)NC(=O)C(Cc2c(Cl)[nH]c3ccccc23)N(C)C(=O)C(C)NC(=O)CC1 (stereo not shown) [CA2]
- GI50 [1, 8]: 66.7 nM
- GI50 [2, 9]: 30.5 nM
- GI50 KB-3.1 [3]: 375.9 nM
- GI50 [4]: 180 nM

SMILES: C/C1=C\CCOC(=O)CC(c2ccc(O)c(Br)c2)NC(=O)C(Cc2c[nH]c3ccccc23)N(C)C(=O)C(C)NC(=O)CC1 (stereo not shown) [CA3]
- GI50 [1, 8]: 1.8 nM
- GI50 [2, 9]: 2.1 nM
- GI50 KB-3.1 [3]: 6.4 nM
- GI50 [4]: 6.2 nM

SMILES: CCC1C/C=C(\C)CC(C)C(=O)NC(C)C(=O)N(C)C(Cc2c(Cl)[nH]c3ccccc23)C(=O)NC(c2ccc(O)c(Cl)c2)CC(=O)O1 (single isomer, unassigned) [CA7-Fr1]
- GI50 [1, 8]: 53.5 nM
- GI50 [2, 9]: 16.3 nM
- GI50 KB-3.1 [3]: 97.9 nM
- GI50 [4]: 74.7 nM

SMILES: CCC1C/C=C(\C)CC(C)C(=O)NC(C)C(=O)N(C)C(C(C)C)C(=O)NC(c2ccc(O)c(Cl)c2)CC(=O)O1 (single isomer, unassigned) [CA6-Fr2]
- GI50 [1, 8]: 65.4 nM
- GI50 [2, 9]: 101 nM
- GI50 KB-3.1 [3]: 74.5 nM
- GI50 [4]: 105 nM

SMILES: C/C1=C\CCOC(=O)CC(c2ccc(O)c(Cl)c2)NC(=O)C(C(C)C)N(C)C(=O)C(C)NC(=O)CC1 (stereo not shown) [CA9]
- GI50 [1, 8]: > 180 nM
- GI50 [2, 9]: 180 nM
- GI50 KB-3.1 [3]: >180 nM
- GI50 [4]: > 180 nM

SMILES: C/C1=C\[C@@H](C)[C@@H](C)OC(=O)C[C@H](c2ccc(O)cc2)NC(=O)[C@@H](Cc2c[nH]c3ccccc23)N(C)C(=O)[C@H](C)NC(=O)[C@@H](C)C1 [Chondramide C, reference compound]
- GI50 [1, 10]: 25.6 ± 1.2 nM
- GI50 [2, 11]: 33.7 ± 3.2 nM
- GI50 [5]: 34 ± 3.7 nM
- GI50 [6]: 26.1 ± 4.7 nM
- GI50 values KB-V.1 [7]: 85.8 ± 14.9 nM
- GI50 values KB-3.1 [3]: 36.8 ± 6.8 nM
- GI50 (L-929): 87.3 ± 14.9 nM

SMILES: CO[C@@H]1C(=O)O[C@H](C)[C@@H](C)C=C(C)C[C@H](C)C(=O)N[C@@H](C)C(=O)N(C)[C@H](Cc2c(Cl)[nH]c3ccccc23)C(=O)NC1c1ccc(O)cc1 (stereo partly shown) [Chondramide B, reference compound]
- GI50 [1, 10]: 20.8 ± 1.9 nM
- GI50 [2, 11]: 30.1 ± 9.5 nM
- GI50 [5]: 30.7 ± 2.9 nM
- GI50 [6]: 20.9 ± 3.2 nM
- GI50 values KB-V.1 [7]: 56.4 ± 9.1 nM
- GI50 values KB-3.1 [3]: 40.7 ± 9.4 nM
- GI50 (L-929): 80.8 ± 13.6 nM

SMILES: CCC1C/C=C(\C)CCC(=O)NC(C)C(=O)N(C)C(C(C)C)C(=O)NC(c2ccc(O)c(Cl)c2)CC(=O)O1 (stereo not shown) [CA5]
- GI50 [1, 8]: 153 nM
- GI50 [2, 9]: 77.3 nM
- GI50 KB-3.1 [3]: 68.7 nM
- GI50 [4]: 56.2 nM

SMILES: CCC1C/C=C(\C)CC(C)C(=O)NC(C)C(=O)N(C)C(C(C)C)C(=O)NC(c2ccc(O)c(Cl)c2)CC(=O)O1 (single isomer, unassigned) [CA6-Fr1]
- GI50 [1, 8]: 59.6 nM
- GI50 [2, 9]: 79.4 nM
- GI50 KB-3.1 [3]: 71.4 nM
- GI50 [4]: 41.1 nM
